Results reported in patent US20260069643A1, “COMBINATIONS COMPRISING VITAMIN B2 AND LACTOBACILLUS RHAMNOSUS” (DSM IP Assets B.V., priority 2022, published 2026).

Legend:
Akkermansiaceae = experiment: Long-term SHIME fermentation (colon model), 16S rRNA gene sequencing and flow cytometry: abundance of Akkermansiaceae; conditions: FIG. 2, mucus of the transverse colon, end of three-week treatment vs end of control period (n=3), probiotic 1*10^10 CFU/reactor, vitamin B2 10 mg/day, significance p<0.05
Text: (§1) The typical reactor setup of the SHIME®, representing the gastrointestinal tract of the adult human, was described by Molly et al. (1993) Applied Microbiology and Biotechnology 39(2):254-258. Inoculum preparation, retention time, pH, temperature settings and reactor feed composition were previously described by Possemiers et al. (2004) FEMS Microbiol Ecol. 49(3):495-507. Compared to the typical setup of the SHIME, the long-term SHIME experiment used for this example included some adaptations. In one reactor, at first, the conditions of the stomach were simulated, before being changed by the computer to conditions simulating the small intestine. […]
(§2) Samples for quantitative 16S-targeted Illumina sequencing were collected 3×/week during the last week of the control and treatment period. […] The obtained high-resolution proportional phylogenetic information (i.e., proportional abundances (%)) was combined with an accurate quantification of total bacterial cells via flow cytometry to obtain quantitative data at phylum, family, and species level. […] Samples were analyzed on a BD Facsverse (BDBiosciences, Erembodegem, Belgium) using the high-flowrate setting and bacteria were separated from medium debris and signal noise by applying a threshold level of 200 on the SYTO channel. […]

Akkermansia muciniphila = experiment: Long-term SHIME fermentation (colon model), 16S rRNA gene sequencing and flow cytometry: abundance of Akkermansia muciniphila; conditions: FIG. 3, mucus of the transverse colon, end of three-week treatment vs end of control period (n=3), probiotic 1*10^10 CFU/reactor, vitamin B2 10 mg/day, significance p<0.05
Text: as §1, §2

Verrucomicrobia = experiment: Long-term SHIME fermentation (colon model), 16S rRNA gene sequencing and flow cytometry: abundance of Verrucomicrobia; conditions: FIG. 1, mucus of the transverse colon, end of three-week treatment vs end of control period (n=3), probiotic 1*10^10 CFU/reactor, vitamin B2 10 mg/day, significance p<0.05
Text: as §1, §2

Lactobacillus rhamnosus GG
did not significantly change: abundance of Akkermansiaceae compared to the control (Akkermansiaceae) | abundance of Akkermansia muciniphila compared to the control (Akkermansia muciniphila) | abundance of Verrucomicrobia compared to the control (Verrucomicrobia)
